From US11787819B2, “Crystalline salt of a multi-tyrosine kinase inhibitor, method of preparation, and use thereof” (Mirati Therapeutics, Inc., priority 2021, dated 2023)

Assays:
[1] = Dynamic vapor sorption (DVS); assay type: physicochemical; details: 25° C.
Procedure: Moisture sorption/desorption data were collected using a Surface Measurement System (SMS) DVS Intrinsic Instrument according to the manufacturer's instructions. Samples were not dried prior to analysis. Sorption/desorption data were collected over a range from 5% to 95% relative humidity (RH) at 10% RH increments under a nitrogen gas purge. The equilibrium criterion used for analysis was less than 0.0100% weight change in 5 min with a maximum equilibration time of three hours. Data were not corrected for initial moisture content of the samples.
The sample was recovered after completion of the isotherm and re-analyzed by XRPD
Sorption isotherms of Compound 1 Malate Form A were obtained using a SMS DVS Intrinsic moisture sorption analyzer, controlled by DVS Intrinsic Control software. The sample temperature was maintained at 25° C. by the instrument controls. The humidity was controlled by mixing streams of dry and wet nitrogen, with a total flow rate of 200 mL/min. The relative humidity was measured by a calibrated Rotronic probe (dynamic range of 1.0-100% RH), located near the sample. The weight change, (mass relaxation) of the sample as a function of % RH was constantly monitored by a microbalance (accuracy ±0.005 mg).
Briefly, Malate Form A was placed in a tared mesh stainless steel basket under ambient conditions. The sample was loaded and unloaded at 40% RH and 25° C. (typical room conditions) and allowed to equilibrate to 5% RH. A moisture sorption isotherm was performed as outlined below (1 scan per complete cycle). The standard isotherm was performed at 25° C. at 10% RH intervals over a 5-95% RH range. Data analysis was carried out within Microsoft Excel using the DVS Analysis Suite.

[2] = Heat and elevated temperature/relative humidity stress (XRPD); assay type: physicochemical; details: heating at or above 40° C. (7 days at 40° C. and 80° C.; at or above 120° C. for ~1 hour)
Procedure: Heat and elevated temperature/RH stresses were designed to evaluate the physical stability of Compound 1 Malate Form A at elevated temperature. A mixture of Compound 1 Malate Form A/Malate Material H was utilized for testing. Experiments were conducted by heating solids of the test material at 40, 80, 120, and 140-145° C. Solids were also subjected to a combination of elevated temperature and RH, i.e. 40° C./75% RH and 30° C./60% RH (Table 3B).

[3] = Long term stability studies (related impurities by HPLC); assay type: physicochemical; details: 6 months storage at 40° C./75% RH, 12 months storage at 40° C./75% RH
[4] = Critical relative humidity stress (XRPD of post-stress solids); assay type: physicochemical; details: RT
Procedure: Critical relative humidity (RH) experiments were designed to confirm the physical stability RH range for Malate Form A in the solid-state. […] The water content of Malate Form A and Material D were characterized by Karl Fischer analysis. (See Table 3A(2)).
(§1) Experiments were carried out by exposing solids of the test materials to various RH conditions. Preparation of specimens for XRPD analyses of post-stress solids was conducted with minimal exposure to ambient conditions. For selected samples, Karl Fischer analysis was done concurrently with XRPD testing. These samples therefore were kept in a glove bag equilibrated at the RH near to the exposure conditions, and the XRPD specimens were prepared inside the glove bag.
A mixture of Malate Form A/Malate Material H was subjected to 0%, 11%, 23%, 69%, and 93% RH, each for approximately 5 days. It should be noted that the stress RH was not maintained during the XRPD specimen preparation and analyses. Therefore, solids from all these stress conditions were briefly exposed to ambient RH estimated as ˜21-23% at the time of the analyses.
(§2) To investigate this further, stress experiments were conducted at 30% and 93% RH with minimal exposure to ambient RH so that XRPD and water content analyses could be considered representative of the stress conditions. […] In these experiments, a mixture of Malate Form A/Malate Material H was initially subjected to 93% RH for ˜8 days. It was then immediately analyzed by XRPD and Karl Fischer. The same sample was then re-exposed to 30% RH.

[5] = Karl Fischer water content; assay type: physicochemical
Procedure: Coulometric Karl Fischer analysis for water determination was performed using a Mettler Toledo DL39 Karl Fischer titrator with a Stromboli oven attachment. Prior to analyses samples tested were exposed to specified ambient relative humidity for ˜2 hours. Two replicates of the sample were placed into the drying oven set at a temperature of approximately 140 or 145° C. The drying oven was purged into the titrator vessel with dry nitrogen. The samples were then titrated by means of a generator electrode, which produces iodine by electrochemical oxidation: 2I−→I2+2e−. A NIST-traceable water standard (Hydranal Water Standard 10.0) was analyzed to check the operation of the coulometer.
as §1, §2

[6] = Clinical trials, salt dosed in patients; assay type: in vivo, human
[7] = Long term stability studies (related impurities by HPLC); assay type: physicochemical
Procedure: Long term stability studies for Compound 1 Malate Form A were conducted at 2-8° C. and 25° C./60% RH. For each test interval, samples are packaged into double polyethylene bags, individually zip tied and stored in 30 mL white screw cap HDPE bottles.

[8] = Critical water activity slurries in organic solvent/water (XRPD); assay type: physicochemical; details: Acetone/H2O 98/2, 1 week, water activity 0.35
Procedure: An evaluation of the physical stability of Malate Form A under solvent-mediated conditions and assessment of the potential competition between solvate and hydrate formation were conducted by slurrying Malate Form A in various organic solvent/water systems (Table 3C).
An acetone/water system was selected for investigation of the stability at water activities between 0.4 and 0.9. Aqueous ACN, Dioxane, DMF, DMSO, and NMP were also investigated. A mixture of Malate Form A/Malate Material H was primarily used as the starting material. Samples of Malate Form A were combined and utilized as the starting material in a single experiment (acetone/water at low water activity).

[9] = Pharmacokinetics in beagle dogs, oral capsule and IV solution; assay type: in vivo
Procedure: Centrifugation began within 1 hour of collection. Plasma was placed into 96-well tubes with barcode labels. Plasma was maintained on dry ice prior to storage at approximately −70° C.

[10] = Phase 1 single-dose crossover relative bioavailability study of capsule formulations in Healthy Subjects; assay type: in vivo, humans; details: 100 mg capsule, oral administration
Procedure: A Phase 1, 2-part, open-label, single-dose, crossover study was conducted to evaluate the relative bioavailability of Compound 1 Malate vs Compound 1 Free base capsule formulations in Healthy Subjects following oral administration.

[11] = Storage of Tartrate Form A-1 at 2-8° C. (XRPD); assay type: physicochemical; details: stored at 2-8° C. for 4 weeks

COCCNCc1ccc(-c2cc3nccc(Oc4ccc(NC(=O)C5(C(=O)Nc6ccc(F)cc6)CC5)cc4F)c3s2)nc1 [Compound 1 Malate Form A]
DVS weight loss, desorption ([1]; 15-5% RH): ~1.7% | DVS weight loss, desorption ([1]; 95-15% RH): approximately 1.3 wt % | DVS weight gain, sorption ([1]; between 5-25% RH): about 2.1 wt % | DVS additional weight gain, sorption ([1]; between 25-95% RH): 1.1 wt % | DVS weight loss upon equilibration at 5% RH ([1]; equilibration at 5% relative humidity): 1.2 wt % | Effect of heating (XRPD) [2]: partial dehydration | Long term stability (in words) [3]: stable | XRPD Results after RH stress ([4]; 30% RH, 4 days (~33% ambient RH at sample preparation, glove bag)): Malate Form A, slight peak shifts (c) | XRPD Results after RH stress ([4]; 93% RH, 1 day): Malate Form A, | Relative humidity above which the form is physically stable ([4]; below it a reversible dehydration was seen): above 23 % RH | Water content (Karl Fischer) ([5]; after the 30% RH stress): 3.7% | Water content, equivalent in mol ([5]; after the 30% RH stress): about 1.5 mol | Water content (Karl Fischer) ([5]; after the 93% RH stress): 5.3% | Water content, equivalent in mol ([5]; after the 93% RH stress): ~2.5 mol | Calculated H2O content (KF, average value from 2 runs) ([5]; ~12% RH at sample preparation): Calculated H2O content: 3.47% | Calculated H2O content (KF, average value from 2 runs) ([5]; ~17-18% RH at sample preparation, ~35 seconds for preparation): Calculated H2O content: 3.73% | Calculated H2O content (KF, average value from 2 runs) ([5]; ~35-36% RH at sample preparation, ~35 seconds for preparation): Calculated H2O content: 5.32% | Dose reduction achieved when the salt was dosed in patients (vs free base) [6]: 20-30% | Related Impurities (HPLC): Total impurities ([7]; 2-8° C., 0 month): 0.86% | Related Impurities (HPLC): Total impurities ([7]; 2-8° C., 3 months): 0.87% | Related Impurities (HPLC): Total impurities ([7]; 2-8° C., 6 months): 0.79% | Related Impurities (HPLC): Total impurities ([7]; 2-8° C., 12 months): 0.78% | Related Impurities (HPLC): Total impurities ([7]; 2-8° C., 24 months): 0.80% | Long term stability (in words) ([7]; 24 months storage at 2-8° C. or 25° C./60% RH): stable | Related Impurities (HPLC): Total impurities ([7]; 25° C./60% RH, 0 month): 0.86% | Related Impurities (HPLC): Total impurities ([7]; 25° C./60% RH, 3 months): 0.76% | Related Impurities (HPLC): Total impurities ([7]; 25° C./60% RH, 6 months): 0.83% | Related Impurities (HPLC): Total impurities ([7]; 25° C./60% RH, 12 months): 0.80% | Related Impurities (HPLC): Total impurities ([7]; 25° C./60% RH, 24 months): 0.90% | XRPD Results after slurry [8]: Malate Form A + Malate Material B | Absolute Bioavailability (%) (DN AUC [Oral]/DN AUC [IV]) * 100 ([9]; beagle dogs, orally administered): 34.2% | Improvement in oral bioavailability compared to the amorphous of Compound 1 free base plus surfactant ([9]; dogs, in the absence of surfactant): 2 fold

COCCNCc1ccc(-c2cc3nccc(Oc4ccc(NC(=O)C5(C(=O)Nc6ccc(F)cc6)CC5)cc4F)c3s2)nc1 [Compound 1 Malate, N-(3-fluoro-4-((2-(5-(((2-methoxyethyl)amino)methyl)pyridin-2-yl)thieno[3,2-b]pyridin-7-yl)oxy)phenyl)-N′-(4-fluorophenyl)cyclopropane-1,1-dicarboxamide (S)-2-hydroxysuccinate (1:1)]
Bioequivalence to 120 mg Compound 1 Free base capsule formulation [10]: bioequivalence was achieved

COCCNCc1ccc(-c2cc3nccc(Oc4ccc(NC(=O)C5(C(=O)Nc6ccc(F)cc6)CC5)cc4F)c3s2)nc1 [Compound 1, N-(3-fluoro-4-((2-(5-(((2-methoxyethyl)amino)methyl)pyridin-2-yl)thieno[3,2-b]pyridin-7-yl)oxy)phenyl)-N′-(4-fluorophenyl)cyclopropane-1,1-dicarboxamide]
Long term stability (in words) ([7]; room temperature, drug substance and drug product): poor long term stability

COCCNCc1ccc(-c2cc3nccc(Oc4ccc(NC(=O)C5(C(=O)Nc6ccc(F)cc6)CC5)cc4F)c3s2)nc1 [Tartrate Form A, N-(3-fluoro-4-((2-(5-(((2-methoxyethyl)amino)methyl)pyridin-2-yl)thieno[3,2-b]pyridin-7-yl)oxy)phenyl)-N′-(4-fluorophenyl)cyclopropane-1,1-dicarboxamide (2R,3R)-2,3-dihydroxysuccinate (1:1)]
XRPD Results after storage [11]: Remained
